The source of these data is ChEMBL document CHEMBL5053498, “Acremonamide, a Cyclic Pentadepsipeptide with Wound-Healing Properties Isolated from a Marine-Derived Fungus of the Genus Acremonium” (J Nat Prod, 2021).

Data set [1] relates to NIH3T3. As to the kind of experiment: Induction of cell migration in mouse NIH3T3 cells at 12.5 uM measured after 24 hrs by transwell assay. Format: functional.
The test system of data set [2] is HaCaT. As to the kind of experiment: Induction of wound healing in human HacaT cells assessed as increase in COL1A2 mRNA level at 12.5 uM by RT-PCR analysis. Format: functional, cell-based.
The test system of data set [3] is NIH3T3. As to the kind of experiment: Cytotoxicity against mouse NIH3T3 cells assessed as cell viability at 3.12 to 50 uM measured after 48 hrs by MTT assay. Format: cell-based. As to conditions: nih3t3, 48 h, dose 3.12-50 µM.
Data set [4] deals with NIH3T3. As to the kind of experiment: Induction of wound healing in mouse NIH3T3 cells assessed as increase in COL1A2 mRNA level at 12.5 uM by RT-PCR analysis. In kind it is functional, cell-based.
The species named for the next data set is Mus musculus. As to the kind of experiment: Induction of wound healing in BALB/c mouse assessed as reduction in wound area after 6 days. As to conditions: time 6.0 day. Format: functional, organism-based.
A further data set has as its system Caco-2. As to the kind of experiment: Cytotoxicity against human Caco-2 cells assessed as cell viability at 3.12 to 50 uM measured after 48 hrs by MTT assay. Format: functional, cell-based. As to conditions: dose 3.12-50 µM. Background: Tetrazolium assays rely on reduction of a dye to a coloured formazan, in cell work by metabolically active cells.
In data set [5] the test system is NIH3T3. As to the kind of experiment: Induction of wound healing in mouse NIH3T3 cells assessed as increase in ACTC1 mRNA level at 12.5 uM by RT-PCR analysis. In kind it is functional, cell-based.
Data set [6] can be described thus: Induction of cell invasion in human HacaT cells at 12.5 uM measured after 24 hrs by transwell assay. In kind it is functional.
Data set [7] concerns HaCaT. As to the kind of experiment: Induction of cell migration in human HacaT cells at 12.5 uM measured after 24 hrs by transwell assay. Format: functional.
Data set [8] in a line: Induction of cell invasion in mouse NIH3T3 cells at 12.5 uM measured after 24 hrs by transwell assay. In kind it is functional.
Data set [9] concerns HaCaT. As to the kind of experiment: Induction of wound healing in human HacaT cells assessed as increase in ACTC1 mRNA level at 12.5 uM by RT-PCR analysis. Format: functional, cell-based.
Data set [10] concerns HaCaT. As to the kind of experiment: Cytotoxicity against human HacaT cells assessed as cell viability at 3.12 to 50 uM measured after 48 hrs by MTT assay. Format: cell-based. To be noted: dose 3.12-50 µM.

Calls of active or inactive are those of the source. The calls are words filed in the database; no cut-off is given here.

Turning to `CC(C)[C@@H]1NC(=O)[C@@H](C(C)C)OC(=O)[C@H](C)N(C)C(=O)[C@H](Cc2ccccc2)NC(=O)[C@H](Cc2ccccc2)N(C)C1=O`, the Activity with NIH3T3 [1] is 50%; in the data set on NIH3T3 [3] it was “Non-Toxic”; in [6], 50%; in the data set on HaCaT [7], 50%; in data set [8], 50%; in the data set with HaCaT [10], “Non-Toxic”. Also, the outcome in the data set on HaCaT [2], in the data set on NIH3T3 [4], in the data set listed under Mus musculus, with NIH3T3 [5] and in the data set on HaCaT [9] was Active. For the same compound, in the data set with Caco-2, the result was inactive.
